Results on 21 compounds are retold here after US20250268903A1, “RXFP1 AGONISTS” (BRISTOL-MYERS SQUIBB COMPANY, priority 2021, published 2025).

SMILES strings stand for the structures.

This experiment has as its target T1, human RXFP1 (Homo sapiens, UniProt Q9HBX9).
T1 construct: expressed in transfected cells
T1 sequence (Q9HBX9 1-757): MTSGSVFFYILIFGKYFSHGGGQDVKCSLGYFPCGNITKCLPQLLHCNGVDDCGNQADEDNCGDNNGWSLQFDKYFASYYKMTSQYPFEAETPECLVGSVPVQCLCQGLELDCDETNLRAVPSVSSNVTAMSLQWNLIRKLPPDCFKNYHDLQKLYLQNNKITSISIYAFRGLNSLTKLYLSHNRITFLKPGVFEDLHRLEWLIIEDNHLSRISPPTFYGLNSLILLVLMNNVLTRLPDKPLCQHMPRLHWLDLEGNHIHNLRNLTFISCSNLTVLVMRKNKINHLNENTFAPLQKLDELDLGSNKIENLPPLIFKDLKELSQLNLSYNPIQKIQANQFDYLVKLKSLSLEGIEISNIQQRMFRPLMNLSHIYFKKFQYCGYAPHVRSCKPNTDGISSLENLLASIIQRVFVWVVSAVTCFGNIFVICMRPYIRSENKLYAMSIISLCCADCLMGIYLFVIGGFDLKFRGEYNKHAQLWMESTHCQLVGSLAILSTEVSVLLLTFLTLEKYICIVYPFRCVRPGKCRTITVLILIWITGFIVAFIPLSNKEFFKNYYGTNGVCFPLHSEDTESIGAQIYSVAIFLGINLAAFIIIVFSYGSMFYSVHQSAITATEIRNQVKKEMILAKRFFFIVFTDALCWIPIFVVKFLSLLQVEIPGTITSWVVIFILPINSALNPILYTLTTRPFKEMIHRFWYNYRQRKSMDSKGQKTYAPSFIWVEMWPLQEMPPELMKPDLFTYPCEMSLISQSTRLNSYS
Put plainly: hRXFP1 HEK293 cAMP assay (HTRF). Type of experiment: cell-based. As to conditions: HEK293 cells stably expressing human RXFP1, 30 min at room temperature. The method in brief:
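HEK293 cells stably expressing human RXFP1 (1500 cells/well) in HBSS/20 mM HEPES/0.05% BSA/0.5 mM IBMX. Compounds were tested at 0.010 nM–50 μM final (2% DMSO) for 30 min at room temperature. cAMP was measured by HTRF and values derived by 4-parameter logistic fit.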
Broadly, the EC50 is the concentration needed to bring the measured effect to its halfway point. A high value points to weaker potency. As for `COc1ccc(C2CCCC(NCC(=O)O)C2)cc1C(=O)N[C@@H]1C2CCC(/C2=C/C(F)(F)F)[C@@H]1C(=O)Nc1ccc(F)c(C(F)(F)F)c1` (stereo partly drawn) [Example 354], the midpoint of the response, the EC50, lay at 4990 nM.

Consider `COC(=O)C1CC(c2ccc(OC)c(C(=O)N[C@H]3[C@@H](C(=O)Nc4ccc(F)c(C(F)(F)F)c4)[C@H]4CC[C@@H]3/C4=C\C(F)(F)F)c2)C1` (stereo partly drawn) [Example 331, methyl 3-(3-{(1R.2R,3S,4R,7Z)-3-{[4-fluoro-3-(trifluoromethyl)phenyl]carbamoyl}-7-(2,2,2-trifluoroethylidene)bicyclo[2.2.1]heptan-2-yl]carbamoyl}-4-methoxyphenyl) cyclobutane-1-carboxylate], for which the EC50 came to 551 nM.

As for `COc1ccc(C(=O)NCC2(S(C)(=O)=O)CC2)cc1C(=O)N[C@H]1[C@@H](C(=O)Nc2ccc(F)c(C(F)(F)F)c2)[C@H]2CC[C@@H]1/C2=C\C1CC1` [Example 232, N3-[(1R,2R,3S,4R,7Z)-7-(cyclopropyl-methylidene)-3-{[4-fluoro-3-(trifluoromethyl)phenyl]carbamoyl}bicyclo[2.2.1]heptan-2-yl]-NI-[(1-methanesulfonyl-cyclopropyl)methyl]-4-methoxybenzene-1,3-dicarboxamide], the EC50 turned out to be 0.95 nM.

Compound `COc1ccc(CCCN2CCOCC2)cc1C(=O)N[C@@H]1C2CCC(/C2=C/C(F)(F)F)[C@@H]1C(=O)Nc1ccc(F)c(C(F)(F)F)c1` (stereo partly drawn) [Example 121, (2S,3R,7Z)-N-[4-fluoro-3-(trifluoromethyl)phe-nyl]-3-{2-methoxy-5-[3-(morpholin-4-yl)propyl]benzamido}-7-(2,2,2-trifluoroethylidene)bi-cyclo[2.2.1]heptane-2-carboxamide] showed an EC50 of 1070 nM.

Compound `COc1ccc(/C=C/C(=O)N2CCOCC2)cc1C(=O)N[C@H]1[C@@H](C(=O)Nc2ccc(F)c(C(F)(F)F)c2)[C@H]2CC[C@@H]1/C2=C\C1CC1` [Example 306, (1R,2S,3R,4R,7Z)-7-(cyclopropyl-methylidene)-N-[4-fluoro-3-(trifluoromethyl)phenyl]-3-{2-methoxy-5-[(1E)-3-(morpholin-4-yl)-3-oxoprop-1-en-1-yl]benzamido} bicyclo[2.2.1] heptane-2-carboxamide] showed an EC50 of 5.26 nM.

As for `COc1ccc(CCCn2cc(-c3ccccc3)nn2)cc1C(=O)N[C@@H]1C2CCC(/C2=C/C(F)(F)F)[C@@H]1C(=O)Nc1ccc(F)c(C(F)(F)F)c1` (stereo partly drawn) [Example 123], a half-maximal response (EC50) required 1270 nM.

Compound `COc1ccc(C2CCCC(OC(=O)Nc3ccccc3)C2)cc1C(=O)N[C@@H]1C2CCC(/C2=C/C(F)(F)F)[C@@H]1C(=O)Nc1ccc(F)c(C(F)(F)F)c1` (single isomer, unassigned) [Example 43] gave a concentration for a half-maximal effect (EC50) of 157 nM.

For the compound `COc1ccc(C2CC2C(=O)N2CCC(O)CC2)cc1C(=O)N[C@H]1[C@@H](C(=O)Nc2ccc(F)c(C(F)(F)F)c2)[C@H]2CC[C@@H]1/C2=C\C1CC1` (single isomer, unassigned) [Example 324], the midpoint of the response, the EC50, lay at 4.95 nM.

The compound `COc1ccc(CCCNC(=O)[C@@H](C)O)cc1C(=O)N[C@H]1[C@@H](C(=O)Nc2ccc(F)c(C(F)(F)F)c2)[C@H]2CC[C@@H]1/C2=C\C(F)(F)F` [Example 111, (1R,2S,3R,4R,Z)—N-(4-fluoro-3-(trifluoromethyl)phenyl)-3-(5-(3-((R)-2-hydroxypropanamido)propyl)-2-methoxybenzamido)-7-(2,2,2-trifluoroethylidene) bicyclo[2.2.1]heptane-2-carboxamide] displayed an EC50 of 106 nM.

As to `COc1ccc(COC2=NOC3CC(O)CC23)cc1C(=O)N[C@H]1[C@@H](C(=O)Nc2ccc(F)c(C(F)(F)F)c2)[C@H]2CC[C@@H]1/C2=C\C1CC1` (stereo partly drawn) [Example 301, (1R,2S,3R,4R,7Z)-7-(cyclopropylmethylidene)-N-[4-fluoro-3-(trifluoromethyl)phenyl]-3-{5-[({5-hydroxy-3aH,4H,5H,6H,6aH cyclopenta[d][1,2]oxazol-3-yl}oxy)methyl]-2-methoxybenzamido} bicyclo[2.2.1] heptane-2-carboxamide], the EC50 came to 21.6 nM.

Consider `COc1ccc(/C=C/C(=O)NC2CCC2)cc1C(=O)NC1C2CCC(/C2=C/C(F)(F)F)[C@@H]1C(=O)Nc1ccc(F)c(C(F)(F)F)c1` (stereo partly drawn) [Example 135, (2S,3R,7Z)-3-{5-[(1E)-2-(cyclobutylcarbamoyl)eth-1-en-1-yl]-2-methoxybenzamido}-N-[4-fluoro-3-(trifluoromethyl)phe-nyl]-7-(2,2,2-trifluoroethylidene)bi-cyclo[2.2.1]heptane-2-carboxamide], for which the EC50 turned out to be 644 nM.

In turn, `COc1ccc(Nc2ccccc2)cc1C(=O)N[C@H]1[C@@H](C(=O)Nc2ccc(F)c(C(F)(F)F)c2)[C@H]2CC[C@@H]1/C2=C\C1CC1` [Example 2, (1R,2S,3R,4R,Z)-7-(cyclopropylmethylene)-N-(4-fluoro-3-(trifluoromethyl)phenyl)-3-(2-methoxy-5-(phenylamino)benzamido) bicyclo[2.2.1]heptane-2-carboxamide] showed an EC50 of 280 nM.

Consider `COc1ccc(C2CCCCC2O)cc1C(=O)N[C@@H]1C2CCC(/C2=C/C(F)(F)F)[C@@H]1C(=O)Nc1ccc(F)c(C(F)(F)F)c1` (single isomer, unassigned) [Example 57], for which the EC50 stood at 1440 nM.

`COc1ccc(CC(C)CO)cc1C(=O)N[C@@H]1C2CCC(/C2=C/C(F)(F)F)[C@@H]1C(=O)Nc1ccc(F)c(C(F)(F)F)c1` (single isomer, unassigned) [Example 66] returned an EC50 of 142 nM.

`COc1ccc([C@@H]2CCC(CC(C)(C)O)C2)cc1C(=O)N[C@H]1[C@@H](C(=O)Nc2ccc(F)c(C(F)(F)F)c2)[C@H]2CC[C@@H]1/C2=C\C1CCCC1` (stereo partly drawn) [Example 362, (1R,2S,3R,4R,Z)-7-(cyclopentyl-methylene)-N-(4-fluoro-3-(trifluoromethyl)phenyl)-3-(5-((1R)-3-(2-hydroxy-2-methylpropyl)cyclopentyl)-2-methoxybenzamido) bicyclo[2.2.1] heptane-2-carboxamide] registered an EC50 of 3 nM.

Compound `COc1ccc(CCCNC[C@H](O)C(F)(F)F)cc1C(=O)N[C@@H]1C2CCC(/C2=C/C(F)(F)F)[C@@H]1C(=O)Nc1ccc(F)c(C(F)(F)F)c1` (stereo partly drawn) [Example 118, (2S,3R,7Z)-N-[4-fluoro-3-(trifluoromethyl)phe-nyl]-3-[2-methoxy-5-(3-{[(2S)-3,3,3-trifluoro-2-hydroxypropyl]amino}propyl)benzamido]-7-(2,2,2-trifluoroethylidene)bi-cyclo[2.2.1]heptane-2-carboxamide] had an EC50 of 1780 nM.

`COc1ccc(CCCO)cc1C(=O)NC1C2CCC(/C2=C/C2CCOCC2)[C@@H]1C(=O)Nc1ccc(F)c(C(F)(F)F)c1` (stereo partly drawn) [Example 165, (7Z)-N-[4-fluoro-3-(trifluoromethyl)phe-nyl]-3-[5-(3-hydroxypropyl)-2-methoxybenzamido]-7-[(oxan-4-yl)methylidene]bicy-clo[2.2.1]heptane-2-carboxamide] had an EC50 of 218 nM.

In turn, `COc1ccc(S(=O)(=O)N2CCO[C@@H](CO)C2)cc1C(=O)NC1C2CCC(/C2=C/C(F)(F)F)[C@@H]1C(=O)Nc1ccc(F)c(C(F)(F)F)c1` (stereo partly drawn) [Example 200, (2S,3R,7Z)-N-[4-fluoro-3-(trifluoromethyl)phe-nyl]-3-(5-{[(2R)-2-(hydroxymethyl)mor-pholin-4-yl]sulfonyl}-2-methoxybenzamido)-7-(2,2,2-trifluoroethylidene)bi-cyclo[2.2.1]heptane-2-carboxamide] yielded an EC50 of 203 nM.

`COc1ccc(CCC(C)C)cc1C(=O)N[C@@H]1C2CCC(/C2=C/C(F)(F)F)[C@@H]1C(=O)Nc1ccc(F)c(C(F)(F)F)c1` (stereo partly drawn) [Example 83] registered an EC50 of 1710 nM.

As to `COc1ccc(C(=O)NCCCO)cc1C(=O)N[C@H]1[C@@H](C(=O)Nc2ccc(F)c(C(F)(F)F)c2)[C@H]2CC[C@@H]1/C2=C\C1CC1` [Example 229, N3-[(1R,2R,3S,4R,7Z)-7-(cyclopropyl-methylidene)-3-{[4-fluoro-3-(trifluoromethyl)phenyl]carbamoyl}bicyclo[2.2.1]heptan-2-yl]-N1-(3-hydroxypropyl)-4-methoxybenzene-1,3-dicarboxamide], the EC50 came out at 183 nM.

For the compound `COc1ccc(C(=O)NCCS(C)(=O)=O)cc1C(=O)N[C@H]1[C@@H](C(=O)Nc2ccc(F)c(C(F)(F)F)c2)[C@H]2CC[C@@H]1/C2=C\C1CC1` [Example 253, N3-[(1R,2R, 3S,4R,7Z)-7-(cyclopropylmethyl-idene)-3-{[4-fluoro-3-(trifluoromethyl)phenyl]carbamoyl}bicyclo[2.2.1]heptan-2-yl]-N1-(2-methanesulfonylethyl)-4-methoxybenzene-1,3-dicarboxamide], the EC50 is 11.9 nM.
